Like-named read-outs stand apart in the source and are kept apart here.
Tested on: 280 human cancer cell lines
Assay: OncoPanel cell proliferation assay (10-day)
Type: cell-based
Settings: Homo sapiens; for GI50: read-out: Cell Count GI50; for IC50: read-out: Cell Count IC50; for EC50: read-out: Cell Count EC50
[1] = SJRH30, SJRH30, Soft Tissue - Sarcoma
[2] = SJSA-1, SJSA1, Soft Tissue - Osteosarcoma
[3] = SK-LMS-1, SK-LMS-1, Soft Tissue - Sarcoma
[4] = SK-MEL3, SK-MEL-3, Skin (Melanoma)
[5] = SK-MEL-1, SK-MEL-1, Skin (Melanoma)
[6] = SK-MEL-28, SK-MEL-28, Skin (Melanoma)
[7] = SK-OV-3, SKOV3, Female GU - Ovary
[8] = SK-UT-1, SK-UT-1, Soft Tissue - Sarcoma
[9] = SW579, SW579, Endocrine - Thyroid
[10] = SW684, SW684, Soft Tissue - Sarcoma

In the case of `CC(C)=CCC[C@H](CO)[C@@H]1CC[C@@H](C)c2c1cc(C)c(O)c2O` [Compound 1, 7,8,18-trihydroxyserrulat-14-ene], the GI50 (SH-4, Skin (Melanoma)) is reported as 1.94 µM, the IC50 (SH-4, Skin (Melanoma)) is reported as 1.95 µM and the EC50 (SHP77, SHP-77, Lung - SCLC) is reported as 0.89 µM. For the same compound, the GI50 (SHP77, SHP-77, Lung - SCLC) was 0.89 µM, the IC50 (SHP77, SHP-77, Lung - SCLC) was 0.9 µM and the EC50 [1] was 1.42 µM. For the same compound, the GI50 [1] was 1.41 µM, the IC50 [1] was 1.42 µM and the EC50 [2] was 1.41 µM. It also gave a GI50 [2] of 1.41 µM, an IC50 [2] of 1.41 µM and an EC50 (SK-BR-3, SK-BR-3, Breast) of 1.79 µM. The GI50 (SK-BR-3, SK-BR-3, Breast) was 1.76 µM, the IC50 (SK-BR-3, SK-BR-3, Breast) was 1.8 µM and the EC50 [3] was 1.57 µM. It also gave a GI50 [3] of 1.56 µM, an IC50 [3] of 1.57 µM and an EC50 [4] of 4.37 µM. For the same compound, the GI50 [4] was 4.28 µM, the IC50 [4] was 4.38 µM and the EC50 [5] was 4.29 µM. The GI50 [5] was 4.11 µM, the IC50 [5] was 4.41 µM and the EC50 [6] was 1.54 µM. The GI50 [6] was 1.53 µM, the IC50 [6] was 1.54 µM and the EC50 (SK-MES-1, SKMES1, Lung - NSCLC) was 1.06 µM. The GI50 (SK-MES-1, SKMES1, Lung - NSCLC) was 1.06 µM, the IC50 (SK-MES-1, SKMES1, Lung - NSCLC) was 1.06 µM and the EC50 (SK-N-AS, CNS - Neuroblastoma) was 3.58 µM. The GI50 (SK-N-AS, CNS - Neuroblastoma) was 3.54 µM, the IC50 (SK-N-AS, CNS - Neuroblastoma) was 3.58 µM and the EC50 (SK-N-DZ, CNS - Neuroblastoma) was 3.16 µM. It also gave a GI50 (SK-N-DZ, CNS - Neuroblastoma) of 2.94 µM, an IC50 (SK-N-DZ, CNS - Neuroblastoma) of 3.16 µM and an EC50 (SK-N-FI, CNS - Neuroblastoma) of 7.31 µM. For the same compound, the GI50 (SK-N-FI, CNS - Neuroblastoma) was 6.32 µM, the IC50 (SK-N-FI, CNS - Neuroblastoma) was 7.31 µM and the EC50 [7] was 1.58 µM. For the same compound, the GI50 [7] was 1.56 µM, the IC50 [7] was 1.58 µM and the EC50 (SK-PN-DW, Stomach) was 4.66 µM. For the same compound, the GI50 (SK-PN-DW, Stomach) was 4.63 µM, the IC50 (SK-PN-DW, Stomach) was 4.66 µM and the EC50 [8] was 2.23 µM. For the same compound, the GI50 [8] was 2.22 µM, the IC50 [8] was 2.23 µM and the EC50 (SKO-007, SKO-007, Myeloma) was 0.99 µM. The GI50 (SKO-007, SKO-007, Myeloma) was 0.93 µM, the IC50 (SKO-007, SKO-007, Myeloma) was 0.99 µM and the EC50 (SNB-19, SNB-19, CNS - Glioma) was 1.66 µM. It also gave a GI50 (SNB-19, SNB-19, CNS - Glioma) of 1.65 µM, an IC50 (SNB-19, SNB-19, CNS - Glioma) of 1.66 µM and an EC50 (SNU1, SNU-1, Stomach) of 1.25 µM. It also gave a GI50 (SNU1, SNU-1, Stomach) of 1.25 µM, an IC50 (SNU1, SNU-1, Stomach) of 1.25 µM and an EC50 (SNU-5, SNU-5, Stomach) of 3.92 µM. The GI50 (SNU-5, SNU-5, Stomach) was 3.87 µM, the IC50 (SNU-5, SNU-5, Stomach) was 3.92 µM and the EC50 (SNU-16, SNU-16, Stomach) was 1.31 µM. For the same compound, the GI50 (SNU-16, SNU-16, Stomach) was 1.31 µM, the IC50 (SNU-16, SNU-16, Stomach) was 1.31 µM and the EC50 (SNU-423, SNU-423, Liver) was 1.48 µM. For the same compound, the GI50 (SNU-423, SNU-423, Liver) was 1.46 µM, the IC50 (SNU-423, SNU-423, Liver) was 1.49 µM and the EC50 (SR, Lymphoma) was 3.8 µM. For the same compound, the GI50 (SR, Lymphoma) was 3.8 µM, the IC50 (SR, Lymphoma) was 3.8 µM and the EC50 (ST486, ST486, Lymphoma) was 1.09 µM. The GI50 (ST486, ST486, Lymphoma) was 1.08 µM, the IC50 (ST486, ST486, Lymphoma) was 1.09 µM and the EC50 (SU-DHL10, SU-DHL-10, Lymphoma) was 3.94 µM. For the same compound, the GI50 (SU-DHL10, SU-DHL-10, Lymphoma) was 3.93 µM, the IC50 (SU-DHL10, SU-DHL-10, Lymphoma) was 3.94 µM and the EC50 (SU-DHL-4, SU-DHL-4, Lymphoma) was 2.01 µM. The GI50 (SU-DHL-4, SU-DHL-4, Lymphoma) was 2.01 µM, the IC50 (SU-DHL-4, SU-DHL-4, Lymphoma) was 2.01 µM and the EC50 (SU-DHL-5, SU-DHL-5, Lymphoma) was 1.2 µM. The GI50 (SU-DHL-5, SU-DHL-5, Lymphoma) was 1.19 µM, the IC50 (SU-DHL-5, SU-DHL-5, Lymphoma) was 1.2 µM and the EC50 (SU-DHL-8, SU-DHL-8, Lymphoma) was 1.77 µM. For the same compound, the GI50 (SU-DHL-8, SU-DHL-8, Lymphoma) was 1.77 µM, the IC50 (SU-DHL-8, SU-DHL-8, Lymphoma) was 1.77 µM and the EC50 (SU.86.86, SU.86.86, Pancreas) was 7.61 µM. The GI50 (SU.86.86, SU.86.86, Pancreas) was 7.58 µM, the IC50 (SU.86.86, SU.86.86, Pancreas) was 7.63 µM and the EC50 (SUP-T1, SUP-T1, Lymphoma) was 3.96 µM. For the same compound, the GI50 (SUP-T1, SUP-T1, Lymphoma) was 3.95 µM, the IC50 (SUP-T1, SUP-T1, Lymphoma) was 3.96 µM and the EC50 (SW48, SW48, Colon) was 1.33 µM. It also gave a GI50 (SW48, SW48, Colon) of 1.32 µM, an IC50 (SW48, SW48, Colon) of 1.33 µM and an EC50 [9] of 1.71 µM. The GI50 [9] was 1.69 µM, the IC50 [9] was 1.71 µM and the EC50 [10] was 9.37 µM. It also gave a GI50 [10] of 8.28 µM, an IC50 [10] of 9.37 µM and an EC50 (SW837, SW837, Colon) of 2.35 µM. The GI50 (SW837, SW837, Colon) was 2.33 µM and the IC50 (SW837, SW837, Colon) was 2.37 µM.

Source: US11331299B2, “Medicinal use of serrulatane diterpenes” (The University of Sydney, priority 2016, dated 2022)
